Assay results reported in patent US7678812B2, “Aminotetralin-derived urea modulators of vanilloid VR1 receptor” (Janssen Pharmaceutica NV, priority 2002, dated 2010).

Biological target: hVR1 receptors (Homo sapiens, UniProt Q8NER1)
Experiment: [3H] RTX binding assay, human VR1
Design: expressed in transfected cells; host or cells: HEK293 (membrane preparation)
Details: inhibition of [3H] RTX binding, membranes of HEK293 cells transfected with human VR1
Description: Compounds of the present invention were tested for their ability to inhibit the binding of [^3H] RTX to hVR1 receptors in a [^3H] RTX binding assay as previously described (Zhang, Sui-Po. Improved ligand binding assays for vanilloid receptors. PCT Int. Appl. (2002), 29 pp. CODEN: PIXXD2 WO 0233411 A1 20020425 AN 2002:315209; Grant, Elfrida R.; Dubin, Adrienne E.; Zhang, Sui-Po; Zivin, Robert A.; Zhong, Zhong Simultaneous intracellular calcium and sodium flux imaging in human vanilloid receptor 1 (VR1)-transfected human embryonic kidney cells: a method to resolve ionic dependence of VR1-mediated cell death. Journal of Pharmacology and Experimental Therapeutics (2002), 300(1), 9-17.)
HEK293 cells were transfected with human VR1 vanilloid receptors and washed with Hank's Balanced Salt Solution, dissociated with cell dissociation buffer (Sigma), and then centrifuged at 1000×g for 5 min. Cell pellets were homogenized in cold 20 mM HEPES buffer, pH 7.4, containing 5.8 mM NaCl, 320 mM sucrose, 2 mM MgCl2, 0.75 CaCl2 and 5 mM KCl and centrifuged at 1000×g for 15 min. The resultant supernate was then centrifuged at 40000×g for 15 min. The pelleted membranes were kept in an −80° C. freezer.
Approximately 120 μg protein/ml from membranes were incubated with indicated concentrations of [^3H] RTX in 0.5 ml of the HEPES buffer (pH 7.4) containing 0.25 mg/mL fatty acid-free bovine serum albumin at 37° C. for 60 min. The reaction mixture was then cooled to 4° C., 0.1 mg α1-acid glycoprotein added to each sample and incubated at 4° C. for 15 min. The samples were centrifuged at 18500×g for 15 min. The tip of the microcentrifuge tube containing the pellet was cut off. Bound radioactivity was quantified by scintillation counting. Non-specific binding was tested in the presence of 200 nM unlabeled RTX.

Chain of hVR1 receptors (Q8NER1 whole entry): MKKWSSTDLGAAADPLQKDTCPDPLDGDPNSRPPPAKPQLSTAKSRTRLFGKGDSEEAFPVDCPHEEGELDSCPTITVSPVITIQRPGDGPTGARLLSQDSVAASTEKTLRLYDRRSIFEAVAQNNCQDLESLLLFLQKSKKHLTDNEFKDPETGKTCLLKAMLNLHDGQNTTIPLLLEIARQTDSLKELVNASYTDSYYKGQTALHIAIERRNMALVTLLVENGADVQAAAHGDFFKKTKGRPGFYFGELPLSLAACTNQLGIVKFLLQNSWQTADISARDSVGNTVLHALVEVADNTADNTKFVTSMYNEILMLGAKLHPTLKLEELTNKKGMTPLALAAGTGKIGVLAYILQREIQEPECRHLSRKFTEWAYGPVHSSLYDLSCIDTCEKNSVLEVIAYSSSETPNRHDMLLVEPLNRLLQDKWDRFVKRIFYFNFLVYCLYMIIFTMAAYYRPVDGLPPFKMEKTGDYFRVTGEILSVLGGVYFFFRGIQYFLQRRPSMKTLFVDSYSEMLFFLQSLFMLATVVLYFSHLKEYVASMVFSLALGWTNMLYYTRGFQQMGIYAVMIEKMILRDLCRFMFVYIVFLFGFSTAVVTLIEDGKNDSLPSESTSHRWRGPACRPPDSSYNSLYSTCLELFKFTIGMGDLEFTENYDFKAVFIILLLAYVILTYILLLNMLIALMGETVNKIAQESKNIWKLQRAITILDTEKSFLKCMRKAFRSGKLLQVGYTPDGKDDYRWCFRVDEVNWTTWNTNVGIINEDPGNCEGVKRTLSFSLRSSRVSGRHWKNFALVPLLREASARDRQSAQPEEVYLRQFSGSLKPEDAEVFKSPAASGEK

Row | Structure (SMILES) | Ki
1 | O=C(Nc1cccc2cnccc12)N[C@H]1CCc2cc(Br)ccc2[C@H]1Cc1ccccc1 (relative stereo) [Compound 39] | 0.89 nM
2 | COc1ccc2c(c1)CC[C@@H](NC(=O)Nc1cccc3cnccc13)[C@H]2Cc1cccc(Cl)c1 (relative stereo) [Compound 44] | 1.96 nM
3 | COc1ccc2c(c1)CC[C@@H](NC(=O)Nc1cccc3cnccc13)[C@@H]2Cc1cccc(Cl)c1 (relative stereo) [Compound 46] | 8.81 nM
4 | COc1ccc2c(c1)CC[C@@H](NC(=O)Nc1cccc3cnccc13)[C@H]2Cc1ccccc1Cl (relative stereo) [Compound 49] | 2.66 nM
5 | COc1ccc2c(c1)CC[C@@H](NC(=O)Nc1cccc3cnccc13)[C@@H]2Cc1ccccc1Cl (relative stereo) [Compound 52] | 12.3 nM
6 | O=C(Nc1cccc2cncc(Cl)c12)N[C@H]1CCc2cc(F)ccc2[C@H]1Cc1ccccc1 (relative stereo) [Compound 98] | 2730 nM
7 | Cc1cc2c(NC(=O)NC3CCc4cc(F)ccc4C3Cc3ccccc3)cccc2cn1 (single isomer, unassigned) [Compound 81a] | 1.12 nM
8 | Cc1cc2c(NC(=O)NC3CCc4cc(F)ccc4C3Cc3ccccc3)cccc2cn1 (single isomer, unassigned) [Compound 81b] | 5.25 nM
9 | O=C(Nc1cccc2c[n+]([O-])ccc12)NC1CCc2cc(F)ccc2C1Cc1ccccc1 (single isomer, unassigned) [Compound 97] | 45.4 nM
10 | O=C(Nc1cccc2c(Cl)nccc12)NC1CCc2cc(F)ccc2C1Cc1ccccc1 (single isomer, unassigned) [Compound 104] | 32.3 nM
11 | COc1ccc2c(c1)CCC(NC(=S)NCc1ccc(O)c(OC)c1)C2Cc1ccccc1 (stereo not drawn) [Compound 3, 1-(1-Benzyl-6-methoxy-1,2,3,4-tetrahydro-naphthalen-2-yl)-3-(4-hydroxy-3-methoxy-benzyl)-thiourea] | 98.9 nM
12 | COc1ccc2c(c1)CCC(NC(=S)NCc1ccc(O)c(OC)c1)C2Cc1cccnc1 (stereo not drawn) [Compound 6] | > 10000 nM
13 | COc1ccc2c(c1)CCC(NC(=S)NCc1ccc(O)c(OC)c1)C2Cc1c[nH]cn1 (stereo not drawn) [Compound 8] | > 10000 nM
14 | COc1ccc2c(c1)CCC(NC(=O)NCc1ccc3c(c1)OCO3)C2Cc1ccccc1 (stereo not drawn) [Compound 9] | > 10000 nM
15 | COc1ccc2c(c1)CCC(NC(=O)NCc1ccc(OC)c(OC)c1)C2Cc1ccccc1 (stereo not drawn) [Compound 10] | 13000 nM
16 | COc1ccc2c(c1)CCC(NC(=O)NCCc1ccc(OC)c(OC)c1)C2Cc1ccccc1 (stereo not drawn) [Compound 13] | 3600 nM
17 | COc1ccc2c(c1)CCC(NC(=S)NCc1ccc3c(c1)OCO3)C2Cc1ccccc1 (stereo not drawn) [Compound 14] | > 10000 nM
18 | COc1ccc2c(c1)CCC(NC(=S)NCc1ccc(OC)c(OC)c1)C2Cc1ccccc1 (stereo not drawn) [Compound 15] | 3110 nM
19 | COc1ccc2c(c1)CCC(NC(=O)NCc1ccc(O)c(OC)c1)C2Cc1ccccc1 (stereo not drawn) [Compound 19] | 258 nM

Row | Structure (SMILES) | Ki
20 | COCOc1ccc(CNC(=S)NC2CCc3ccccc3C2Cc2ccccc2)cc1OC (stereo not drawn) [Compound 21] | 520 nM
21 | COc1cc(CNC(=S)NC2CCc3ccccc3C2Cc2ccccc2)ccc1O (stereo not drawn) [Compound 23] | 98.2 nM
22 | COc1ccc2c(c1)CCC(NC(=O)NCc1ccc(N(C)C3CCCCC3)cc1)C2Cc1ccccc1 (stereo not drawn) [Compound 25] | 70900 nM
23 | COc1ccc2c(c1)CCC(NC(=O)Nc1cccc3ccc(O)cc13)C2Cc1ccccc1 (stereo not drawn) [Compound 35] | 9.64 nM
24 | O=C(Nc1cccc2cnccc12)NC1CCc2cc(F)ccc2C1 (stereo not drawn) [Compound 37] | 24.9 nM
25 | COc1cc2c(cc1OC)C(Cc1ccccc1)C(NC(=O)Nc1cccc3cnccc13)CC2 (stereo not drawn) [Compound 40] | 29.6 nM
26 | O=C(Nc1cccc2cnccc12)NC1CCc2ccc(Cl)cc2C1Cc1ccccc1 (stereo not drawn) [Compound 41] | 4.58 nM
27 | O=C(Nc1cccc2cnccc12)NC1CCc2ccccc2C1Cc1ccccc1 (stereo not drawn) [Compound 43] | 3.66 nM
28 | COc1ccc2c(c1)CCC(NC(=O)Nc1cccc3cnccc13)C2Cc1cccnc1 (stereo not drawn) [Compound 45] | 1540 nM
29 | COc1ccc2c(c1)CCC(NC(=O)Nc1cccc3cnccc13)C2Cc1cccnc1 (stereo not drawn) [Compound 47] | 1030 nM
30 | COc1cc2c(cc1OC)C(Cc1ccccc1)C(NC(=O)Nc1cccc3cnccc13)CC2 (stereo not drawn) [Compound 48] | 19.3 nM
31 | COc1ccc2c(c1)CCC(NC(=O)Nc1cccc3cnccc13)C2Cc1ccc(Cl)cc1 (stereo not drawn) [Compound 50] | 1.8 nM
32 | COc1ccc2c(c1)CCC(NC(=O)Nc1cccc3cnccc13)C2 (stereo not drawn) [Compound 51] | 24 nM
33 | COc1ccc2c(c1)CCC(NC(=O)Nc1cccc3cnccc13)C2Cc1ccccc1C(F)(F)F (stereo not drawn) [Compound 53] | 0.48 nM
34 | COc1ccc2c(c1)CCC(NC(=O)Nc1cccc3cnccc13)C2Cc1cccc(C(F)(F)F)c1 (stereo not drawn) [Compound 54] | 2.04 nM
35 | COc1ccc2c(c1)CCC(NC(=O)Nc1cccc3cnccc13)C2Cc1ccc(C(F)(F)F)cc1 (stereo not drawn) [Compound 55] | 1.55 nM
36 | O=C(Nc1cccc2cnccc12)NC1CCc2cc(O)ccc2C1Cc1ccccc1 (stereo not drawn) [Compound 56] | 277 nM
37 | O=C(Nc1cccc2cnccc12)NC1CCc2cc(Br)ccc2C1 (stereo not drawn) [Compound 58] | 2.62 nM
38 | O=C(Nc1cccc2cnccc12)NC1CCc2cc(Cl)ccc2C1 (stereo not drawn) [Compound 59] | 2.6 nM

Row | Structure (SMILES) | Ki
39 | O=C(NCc1cccc2cnccc12)NC1CCc2cc(F)ccc2C1Cc1ccccc1 (stereo not drawn) [Compound 60, 1-(1-Benzyl-6-fluoro-1,2,3,4-tetrahydronaphthalene-2-yl)-3-isoquinolin-5-ylmethyl-urea] | 4.99 nM
40 | O=C(Nc1cccc2cnccc12)NC1CCc2ccc(Cl)cc2C1 (stereo not drawn) [Compound 61] | 3.42 nM
41 | O=C(Nc1cccc2cnccc12)NC1CCc2cccc(Cl)c2C1Cc1ccccc1 (stereo not drawn) [Compound 62] | 7.59 nM
42 | COc1ccc2c(c1)CCC(NC(=O)Nc1cccc3cnccc13)C2Cc1ccc(C#N)cc1 (stereo not drawn) [Compound 63] | 16.5 nM
43 | COc1ccc2c(c1)CCC(NC(=O)Nc1cccc3cnccc13)C2Cc1ccc(Br)cc1 (stereo not drawn) [Compound 64] | 1.28 nM
44 | O=C(Nc1cccc2cnccc12)NC1CCc2cc(F)c(F)cc2C1Cc1ccccc1 (stereo not drawn) [Compound 66] | 1.82 nM
45 | O=C(Nc1cccc2ccc(O)cc12)NC1CCc2cc(F)ccc2C1Cc1ccccc1 (stereo not drawn) [Compound 67, 1-(1-Benzyl-6-fluoro-1,2,3,4-tetrahydronaphthalene-2-yl)-3-(7-hydroxy-naphthalen-1-yl)-urea] | 1.44 nM
46 | C=CCC1c2ccc(F)cc2CCC1NC(=O)Nc1cccc2cnccc12 (stereo not drawn) [Compound 69] | 2.19 nM
47 | COc1ccc(CC2c3ccc(OC)cc3CCC2NC(=O)Nc2cccc3cnccc23)cc1 (stereo not drawn) [Compound 70] | 5.55 nM
48 | O=C(Nc1cccc2cnccc12)NC1CCc2cc(F)ccc2C1CC1CC1 (stereo not drawn) [Compound 71, 1-(1-cyclopropylmethyl-6-fluoro-1,2,3,4-tetrahydronaphthalene-2-yl)-3-isoquinolin-5-yl-urea] | 0.84 nM
49 | COc1ccc(CC2c3ccc(OC)cc3CCC2NC(=O)Nc2cccc3cnccc23)cc1 (stereo not drawn) [Compound 72] | 7.52 nM
50 | COc1ccc2c(c1)CCC(NC(=O)Nc1cccc3cnccc13)C2Cc1ccccc1OC (stereo not drawn) [Compound 73] | 53.4 nM
51 | COc1ccc2c(c1)CCC(NC(=O)Nc1cccc3cnccc13)C2Cc1ccc(OCc2ccccc2)cc1 (stereo not drawn) [Compound 74] | 11.3 nM
52 | O=C(Nc1cccc2cnccc12)NC1CCc2cc(F)ccc2C1Cc1cccs1 (stereo not drawn) [Compound 76] | 3.81 nM
53 | COc1ccc2c(c1)CCC(NC(=O)Nc1cccc3cnccc13)C2Cc1c(F)cccc1F (stereo not drawn) [Compound 77] | 6.26 nM
54 | O=C(Nc1cccc2cnccc12)NC1CCc2cc(Cl)ccc2C1Cc1ccccc1 (stereo not drawn) [Compound 86] | 1.7 nM
55 | O=C(Nc1cccc2cncc(Cl)c12)NC1CCc2cc(F)ccc2C1Cc1ccccc1 (stereo not drawn) [Compound 99] | 2700 nM
56 | O=C(Nc1cccc2c(Cl)nc(Cl)cc12)NC1CCc2cc(F)ccc2C1Cc1ccccc1 (stereo not drawn) [Compound 108] | 186 nM
57 | O=C(Nc1cccc2c(Cl)nc(Cl)cc12)NC1CCc2cc(F)ccc2C1Cc1ccccc1 (stereo not drawn) [Compound 109] | 29.2 nM
